The assay deals with T1, TRPML1 (Homo sapiens, UniProt Q9GZU1).
T1 construct: expressed in transfected cells
T1 sequence (Q9GZU1 whole entry): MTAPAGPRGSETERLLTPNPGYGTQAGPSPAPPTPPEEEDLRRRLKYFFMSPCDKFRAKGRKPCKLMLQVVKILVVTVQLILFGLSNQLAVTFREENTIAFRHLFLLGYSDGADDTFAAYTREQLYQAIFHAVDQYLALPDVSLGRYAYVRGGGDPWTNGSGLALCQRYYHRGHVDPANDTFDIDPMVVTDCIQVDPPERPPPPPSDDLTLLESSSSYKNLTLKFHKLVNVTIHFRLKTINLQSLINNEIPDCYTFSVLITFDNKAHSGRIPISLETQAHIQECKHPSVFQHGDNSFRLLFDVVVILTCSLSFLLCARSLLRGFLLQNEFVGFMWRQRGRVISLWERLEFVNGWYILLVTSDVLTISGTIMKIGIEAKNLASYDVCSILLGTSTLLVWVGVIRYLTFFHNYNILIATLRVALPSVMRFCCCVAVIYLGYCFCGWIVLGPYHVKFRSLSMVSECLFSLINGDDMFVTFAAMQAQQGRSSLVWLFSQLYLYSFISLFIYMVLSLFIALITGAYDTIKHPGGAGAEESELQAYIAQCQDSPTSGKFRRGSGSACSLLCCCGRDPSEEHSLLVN
Description: Cellular TRPML1 assay (FLIPR TETRA, GCaMP6f calcium read-out). It is filed as cell-based. To be noted: HEK T-REx/GCaMP6f/TRPML1 cells; Ca2+ response over 300 s, normalized to ML-SA1 50 μM; Ca2+ free or Optimem condition not given; read-out: Ec50 (Activity of TRPML1 agonists). How it is done: Buffers and reagents • PBS (D-PBS without calcium and magnesium; EuroClone) • Trypsin (Trypsin 0.05%, EDTA 0.02% in PBS; EuroClone) • DMSO (Sigma) • Ca^2+ free Tyrode's buffer: in-house solution (130 mM NaCl, 5 mM KCl, 1 mM MgCl2, 5 mM NaHCO3, 20 mM HEPES in water at pH 7.4; sterile filtered). • Opti-MEM (Gibco) • Agonist: ML-SA1 (Sigma); stock: 60 mM in DMSO, stored at −20° C. • Blocker: ML-SI3 (in house synthesis); stock: 20 mM in DMSO, stored at −20° C.
The final clone for the TRPML1 assay is HEK T-REx/GCaMP6f/TRPML1.
GCaMP6f is a genetically encoded calcium indicator that is stably expressed in this cell line and used as a fluorescent read-out.
Experiments are performed in 384 MTP format. Cells are seeded at 15000 cells/well either in 25 μl/well of growth medium or in 20 μl/well of Optimem+0.5% FBS without selection antibiotics. Twenty-four hours later, cells are assayed for the response to various compounds using the Ca^2+ sensitive GCaMP6f protein stably expressed in the cells as readout.
The experiment is performed in a 384-well format according to the following procedures for either Ca^2+ free or Optimem conditions: • Ca^2+ free condition (in absence of extracellular Ca^2+): • 24 h after seeding, pre-incubate the cells at room temperature for about 10′. • Then remove the culture medium and replace it with 20 μL of Ca^2+ free Tyrode's buffer. • Start the experiment at the FLIPR^TETRA by injecting 10 μL/w of 3× concentrated test compounds and controls in Ca^2+ free Tyrode's buffer. Monitor the kinetic response over a period of 300 seconds. • Final DMSO concentration: 0.5% • Optimem condition (in presence of extracellular Ca^2+): • 24 h after seeding, pre-incubate the cells at room temperature for about 10′. • Start the experiment at the FLIPR^TETRA by injecting 10 μL/w of 3× concentrated test compounds and controls in Ca^2+ free Tyrode's buffer. Monitor the kinetic response over a period of 300 seconds. • Final DMSO concentration: 0.5%
Data from FLIPR^TETRA measurements are analyzed with the Genedata Screener® software.
Stimulator controls (Col 2): injection of ML-SA1 EC100 (50 μM) in alternated wells positions
Neutral controls (Col 2): injection of 0 mM Ca^2+ free Tyrode's buffer in alternated wells positions.
Test wells (Col 3-22): test compounds dose response curve from either 100 μM with 1:2 dilution steps or from 50 μM with 1:3.16 dilution steps.
Broadly, the EC50 is the concentration that produces a half-maximal response. On to `CN(C(=O)c1ccc(S(=O)(=O)N(C)C)cc1)c1ccccc1N1CCC(Oc2ccccn2)CC1` [Example 10, 4-(N,N-dimethylsulfamoyl)-N-methyl-N-(2-(4-(pyridin-2-yloxy)piperidin-1-yl)phenyl)benzamide], for which the EC50 is 8.4 µM.

For `O=S(=O)(Nc1ccccc1N1CCCCC1)c1sccc1C1OCCO1` [Example 11, 3-(1,3-dioxolan-2-yl)-N-[2-(piperidin-1-yl)phenyl]thiophene-2-sulfonamide], the EC50 worked out at 33.5 µM.

On to `CN(C)S(=O)(=O)c1ccc(S(=O)(=O)Nc2ccccc2N2CCC(c3ccccc3)CC2)cc1` [Example 12, N1,N1-dimethyl-N4-[2-(4-phenylpiperidin-1-yl)phenyl]benzene-1,4-disulfonamide], for which the 50% effective concentration (EC50) was determined as 2.8 µM.

For the molecule `CCCN(C)C(=O)C1CCN(c2ccccc2NS(=O)(=O)c2ccc(S(=O)(=O)N(C)C)cc2)CC1` [Example 14, 1-(2-((4-(N,N-dimethylsulfamoyl)phenyl)sulfonamido)phenyl)-N-methyl-N-propylpiperidine-4-carboxamide], the EC50 was found to be 19.7 µM.

For `CN(C(=O)c1ccc(S(=O)(=O)N(C)C)cc1)c1ccccc1N1CCCCC1` [Example 15, 4-(dimethylsulfamoyl)-N-methyl-N-[2-(piperidin-1-yl)phenyl]benzamide], the EC50 was found to be 59.1 µM.

Take `CC(C)(C)c1ccc(S(=O)(=O)Nc2ccccc2N2CC3CCC2C3)s1` (centres unmarked) [Example 16, N-(2-{2-azabicyclo[2.2.1]heptan-2-yl}phenyl)-5-tert-butylthiophene-2-sulfonamide]: the EC50 came to 14.6 µM.

Consider `CCc1ccc(S(=O)(=O)Nc2ccccc2N2CC3CCC2C3)s1` (centres unmarked) [Example 17, N-(2-{2-azabicyclo[2.2.1]heptan-2-yl}phenyl)-5-ethylthiophene-2-sulfonamide], for which the EC50 amounted to 18.2 µM.

As for `CCc1ccc(S(=O)(=O)Nc2ccccc2N2CCN(C(=O)OC(C)(C)C)CC2)cc1` [Example 18, tert-butyl 4-(2-((4-ethylphenyl)sulfonamido)phenyl)piperazine-1-carboxylate], the concentration giving a half-maximal response (EC50) was 3.5 µM.

As to `CCc1ccc(S(=O)(=O)N(C)c2ccccc2N2CC3CCC2C3)s1` (centres unmarked) [Example 21, N-(2-{2-azabicyclo[2.2.1]heptan-2-yl}phenyl)-5-ethyl-N-methylthiophene-2-sulfonamide], the concentration giving a half-maximal response (EC50) was 55.6 µM.

As to `CN(C)S(=O)(=O)c1ccc(S(=O)(=O)NC2CCCCC2N2CCCCC2)cc1` (centres unmarked) [Example 22, N1,N1-dimethyl-N4-[2-(piperidin-1-yl)cyclohexyl]benzene-1,4-disulfonamide], the EC50 amounted to 98 µM.

Consider `Cc1cccc(S(=O)(=O)Nc2ccccc2N2CCCCC2)c1` [Example 23, 3-methyl-N-[2-(piperidin-1-yl)phenyl]benzene-1-sulfonamide], for which the half-maximal effective concentration (EC50) was 15.5 µM.

With `CN(C)S(=O)(=O)c1ccc(S(=O)(=O)Nc2ccccc2N2CCOCC2)cc1` [Example 27, N1,N1-dimethyl-N4-[2-(morpholin-4-yl)phenyl]benzene-1,4-disulfonamide], the EC50 is 13.3 µM.

Turning to `CC(C)c1ccc(S(=O)(=O)Nc2ccccc2N2CCN(C(=O)OC(C)(C)C)CC2)cc1` [Example 28, tert-butyl 4-(2-((4-isopropylphenyl)sulfonamido)phenyl)piperazine-1-carboxylate], the EC50 was 2.9 µM.

For `CC(C)c1ccc(S(=O)(=O)Nc2ccccc2N2CCC(C(=O)OC(C)(C)C)CC2)cc1` [Example 29, tert-butyl 1-(2-((4-isopropylphenyl)sulfonamido)phenyl)piperidine-4-carboxylate], the concentration for a half-maximal effect (EC50) was found to be 2.3 µM.

`CN(C)S(=O)(=O)c1ccc(S(=O)(=O)Nc2ccccc2CN2CCCCC2)cc1` [Example 30, N1,N1-dimethyl-N4-(2-(piperidin-1-ylmethyl)phenyl)benzene-1,4-disulfonamide]: the 50% effective concentration (EC50) was 50 µM.

On to `CC(C)Oc1ccc(S(=O)(=O)Nc2ccccc2N2CCC(C(=O)OC(C)(C)C)CC2)cc1` [Example 31, tert-butyl 1-(2-((4-isopropoxyphenyl)sulfonamido)phenyl)piperidine-4-carboxylate], for which the EC50 came to 6 µM.

As to `CN(C)S(=O)(=O)c1ccc(S(=O)(=O)Nc2ccccc2N2CCCC2)cc1` [Example 32, N1,N1-dimethyl-N4-[2-(pyrrolidin-1-yl)phenyl]benzene-1,4-disulfonamide], the concentration for a half-maximal effect (EC50) was found to be 19.2 µM.

With `CN(C)S(=O)(=O)c1ccc(S(=O)(=O)Nc2ccccc2N2CCCC(c3ccccc3)C2)cc1` (centres unmarked) [Example 35, N1,N1-dimethyl-N4-[2-(3-phenylpiperidin-1-yl)phenyl]benzene-1,4-disulfonamide], the concentration giving a half-maximal response (EC50) is 7.7 µM.

Regarding `COC1CCCN(c2ccccc2NS(=O)(=O)c2ccc(S(=O)(=O)N(C)C)cc2)C1` (centres unmarked) [Example 36, N4-[2-(3-methoxypiperidin-1-yl)phenyl]-N1,N1-dimethylbenzene-1,4-disulfonamide], the EC50 amounted to 7.3 µM.

Take `CN(C)S(=O)(=O)c1ccc(S(=O)(=O)Nc2ccccc2N2CCC(c3ccccc3)C2)cc1` (centres unmarked) [Example 37, N1,N1-dimethyl-N4-[2-(3-phenylpyrrolidin-1-yl)phenyl]benzene-1,4-disulfonamide]: the EC50 came out at 6.3 µM.

`CN(C)S(=O)(=O)c1ccc(S(=O)(=O)Nc2ccccc2N2CCC(O)CC2)cc1` [Example 38, N1-(2-(4-hydroxypiperidin-1-yl)phenyl)-N4,N4-dimethylbenzene-1,4-disulfonamide]: the half-maximal effective concentration (EC50) came out at 34.5 µM.

Take `CC(C)Oc1ccc(S(=O)(=O)Nc2ccccc2N2CCCCC2)cc1` [Example 39, 4-isopropoxy-N-(2-(piperidin-1-yl)phenyl)benzenesulfonamide]: the EC50 amounted to 54.5 µM.

For the molecule `CN(C)S(=O)(=O)c1ccc(S(=O)(=O)Nc2ccccc2N2CCCOCC2)cc1` [Example 43, N1-(2-(l,4-oxazepan-4-yl)phenyl)-N4,N4-dimethylbenzene-1,4-disulfonamide], the half-maximal effective concentration (EC50) stood at 7 µM.

In the case of `CN(C)S(=O)(=O)c1ccc(S(=O)(=O)Nc2ccccc2N2CCC(F)CC2)cc1` [Example 44, N1-(2-(4-fluoropiperidin-1-yl)phenyl)-N4,N4-dimethylbenzene-1,4-disulfonamide], the EC50 was 2.6 µM.

Turning to `CCCOC1CCN(c2ccccc2NS(=O)(=O)c2ccc(S(=O)(=O)N(C)C)cc2)CC1` [Example 45, N1,N1-dimethyl-N4-(2-(4-propoxypiperidin-1-yl)phenyl)benzene-1,4-disulfonamide], the concentration giving a half-maximal response (EC50) came out at 1.9 µM.

In the case of `Cc1ccccc1S(=O)(=O)Nc1ccccc1N1CCN(C(=O)OC(C)(C)C)CC1` [Example 47, tert-butyl 4-(2-((2-methylphenyl)sulfonamido)phenyl)piperazine-1-carboxylate], the concentration for a half-maximal effect (EC50) amounted to 5.2 µM.

With `CN(C(=O)c1ccc(S(=O)(=O)N(C)C)cc1)c1ccccc1N1CC2CCC1C2` (centres unmarked) [Example 49, N-(2-{2-azabicyclo[2.2.1]heptan-2-yl}phenyl)-4-(dimethylsulfamoyl)-N-methylbenzamide], the concentration for a half-maximal effect (EC50) was 29.3 µM.

In the case of `Cc1ccc(S(=O)(=O)Nc2ccccc2N2CCN(C(=O)OC(C)(C)C)CC2)c(C)c1` [Example 50, tert-butyl 4-(2-((2,4-dimethylphenyl)sulfonamido)phenyl)piperazine-1-carboxylate], the EC50 came out at 2.2 µM.

`Cc1ccc(S(=O)(=O)Nc2ccccc2N2CCN(C(=O)OC(C)(C)C)CC2)cc1C` [Example 51, tert-butyl 4-(2-((3,4-dimethylphenyl)sulfonamido)phenyl)piperazine-1-carboxylate]: the EC50 was determined as 3 µM.
